Drawing on PubChem BioAssay (NCI), this text covers TGI for four compounds.

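Each compound was tested at five concentrations against cells in 96-well plates for 48 hours. TGI marks complete inhibition of growth.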

The first assay deals with NCI/ADR-RES ovarian. Description: growth of human tumour cells (NCI), 48 h.
`COc1ccc(C2Oc3c(OC)cc(CCCO)cc3C2CO)cc1OC` (stereo not given) gave a TGI of over 100 µM.

Consider `COc1cc2c3cc1Oc1c(OC)c(OC)cc4c1C(Cc1ccc(O)c(c1)Oc1ccc(cc1)CC3N(C)CC2)CN(C)C4` (stereo not given), for which the TGI is 41.7 µM.

Compound `COc1cc2[nH]c(=O)c3cc(-c4ccccc4)cc4c(Cl)nc(c1OC)c2c43` gave a TGI of over 38.3 µM.

The test system of another assay is UACC-62 melanoma. The assay can be described thus: growth of human tumour cells (NCI), 48 h.
In the case of `CCc1nc(N)nc(N)c1-c1ccc([N+](=O)[O-])c(NCc2ccccc2)c1`, the TGI stood at 35.7 µM.

For `COc1ccc(C2Oc3c(OC)cc(CCCO)cc3C2CO)cc1OC` (stereo not given), the TGI was over 100 µM.

On to `COc1cc2c3cc1Oc1c(OC)c(OC)cc4c1C(Cc1ccc(O)c(c1)Oc1ccc(cc1)CC3N(C)CC2)CN(C)C4` (stereo not given), for which the TGI was 32.1 µM.

`COc1cc2[nH]c(=O)c3cc(-c4ccccc4)cc4c(Cl)nc(c1OC)c2c43` had a TGI of 34.6 µM.

In another assay the test system is SN12C renal. Description: growth of human tumour cells (NCI), 48 h.
For `CCc1nc(N)nc(N)c1-c1ccc([N+](=O)[O-])c(NCc2ccccc2)c1`, the TGI came out at 44.5 µM.

In turn, `COc1ccc(C2Oc3c(OC)cc(CCCO)cc3C2CO)cc1OC` (stereo not given) returned a TGI of over 100 µM.

For the compound `COc1cc2c3cc1Oc1c(OC)c(OC)cc4c1C(Cc1ccc(O)c(c1)Oc1ccc(cc1)CC3N(C)CC2)CN(C)C4` (stereo not given), the TGI is 34.7 µM.

In turn, `COc1cc2[nH]c(=O)c3cc(-c4ccccc4)cc4c(Cl)nc(c1OC)c2c43` gave a TGI of over 100 µM.

The test system of another assay is NCI-H522 lung. The assay can be described thus: growth of human tumour cells (NCI), 48 h.
In turn, `CCc1nc(N)nc(N)c1-c1ccc([N+](=O)[O-])c(NCc2ccccc2)c1` returned a TGI of 35.6 µM.

`COc1ccc(C2Oc3c(OC)cc(CCCO)cc3C2CO)cc1OC` (stereo not given) registered a TGI of over 100 µM.

In turn, `COc1cc2c3cc1Oc1c(OC)c(OC)cc4c1C(Cc1ccc(O)c(c1)Oc1ccc(cc1)CC3N(C)CC2)CN(C)C4` (stereo not given) showed a TGI of 26.2 µM.

In turn, `COc1cc2[nH]c(=O)c3cc(-c4ccccc4)cc4c(Cl)nc(c1OC)c2c43` displayed a TGI of over 89.2 µM.

The next assay deals with HCT-15 colon. Description: growth of human tumour cells (NCI), 48 h.
The compound `CCc1nc(N)nc(N)c1-c1ccc([N+](=O)[O-])c(NCc2ccccc2)c1` came in with a TGI of 38.2 µM.

Regarding `COc1ccc(C2Oc3c(OC)cc(CCCO)cc3C2CO)cc1OC` (stereo not given), the TGI is over 100 µM.

Compound `COc1cc2c3cc1Oc1c(OC)c(OC)cc4c1C(Cc1ccc(O)c(c1)Oc1ccc(cc1)CC3N(C)CC2)CN(C)C4` (stereo not given) showed a TGI of 33.9 µM.

Compound `COc1cc2[nH]c(=O)c3cc(-c4ccccc4)cc4c(Cl)nc(c1OC)c2c43` returned a TGI of over 75.8 µM.

Another assay has as its system M14 melanoma. Description: growth of human tumour cells (NCI), 48 h.
As to `CCc1nc(N)nc(N)c1-c1ccc([N+](=O)[O-])c(NCc2ccccc2)c1`, the TGI was 39.9 µM.

The compound `COc1ccc(C2Oc3c(OC)cc(CCCO)cc3C2CO)cc1OC` (stereo not given) gave a TGI of over 100 µM.

With `COc1cc2c3cc1Oc1c(OC)c(OC)cc4c1C(Cc1ccc(O)c(c1)Oc1ccc(cc1)CC3N(C)CC2)CN(C)C4` (stereo not given), the TGI amounted to 15 µM.

`COc1cc2[nH]c(=O)c3cc(-c4ccccc4)cc4c(Cl)nc(c1OC)c2c43` came in with a TGI of over 62.9 µM.

In the next assay the test system is HT29 colon. Description: growth of human tumour cells (NCI), 48 h.
Consider `CCc1nc(N)nc(N)c1-c1ccc([N+](=O)[O-])c(NCc2ccccc2)c1`, for which the TGI was found to be 23.2 µM.

Compound `COc1ccc(C2Oc3c(OC)cc(CCCO)cc3C2CO)cc1OC` (stereo not given) showed a TGI of over 100 µM.

In turn, `COc1cc2c3cc1Oc1c(OC)c(OC)cc4c1C(Cc1ccc(O)c(c1)Oc1ccc(cc1)CC3N(C)CC2)CN(C)C4` (stereo not given) gave a TGI of 13.7 µM.

The compound `COc1cc2[nH]c(=O)c3cc(-c4ccccc4)cc4c(Cl)nc(c1OC)c2c43` returned a TGI of over 60.7 µM.

The next assay relates to MALME-3M melanoma. Description: growth of human tumour cells (NCI), 48 h.
For `COc1ccc(C2Oc3c(OC)cc(CCCO)cc3C2CO)cc1OC` (stereo not given), the TGI was over 100 µM.

In the case of `COc1cc2c3cc1Oc1c(OC)c(OC)cc4c1C(Cc1ccc(O)c(c1)Oc1ccc(cc1)CC3N(C)CC2)CN(C)C4` (stereo not given), the TGI worked out at 30.9 µM.

The compound `COc1cc2[nH]c(=O)c3cc(-c4ccccc4)cc4c(Cl)nc(c1OC)c2c43` yielded a TGI of 17.1 µM.

The test system of the next assay is HCC-2998 colon. Description: growth of human tumour cells (NCI), 48 h.
Regarding `CCc1nc(N)nc(N)c1-c1ccc([N+](=O)[O-])c(NCc2ccccc2)c1`, the TGI was determined as 36.7 µM.

`COc1ccc(C2Oc3c(OC)cc(CCCO)cc3C2CO)cc1OC` (stereo not given) displayed a TGI of over 100 µM.

`COc1cc2c3cc1Oc1c(OC)c(OC)cc4c1C(Cc1ccc(O)c(c1)Oc1ccc(cc1)CC3N(C)CC2)CN(C)C4` (stereo not given) registered a TGI of 13.7 µM.

Compound `COc1cc2[nH]c(=O)c3cc(-c4ccccc4)cc4c(Cl)nc(c1OC)c2c43` registered a TGI of over 86.4 µM.

Another assay has as its system HL-60(TB) leukemia. Description: growth of human tumour cells (NCI), 48 h.
In turn, `CCc1nc(N)nc(N)c1-c1ccc([N+](=O)[O-])c(NCc2ccccc2)c1` had a TGI of 18.7 µM.

Regarding `COc1ccc(C2Oc3c(OC)cc(CCCO)cc3C2CO)cc1OC` (stereo not given), the TGI is over 100 µM.

With `COc1cc2c3cc1Oc1c(OC)c(OC)cc4c1C(Cc1ccc(O)c(c1)Oc1ccc(cc1)CC3N(C)CC2)CN(C)C4` (stereo not given), the TGI was determined as 6.11 µM.

With `COc1cc2[nH]c(=O)c3cc(-c4ccccc4)cc4c(Cl)nc(c1OC)c2c43`, the TGI stood at 12.3 µM.

A further assay has as its system NCI-H23 lung. The assay can be described thus: growth of human tumour cells (NCI), 48 h.
On to `CCc1nc(N)nc(N)c1-c1ccc([N+](=O)[O-])c(NCc2ccccc2)c1`, for which the TGI is over 60.6 µM.

`COc1ccc(C2Oc3c(OC)cc(CCCO)cc3C2CO)cc1OC` (stereo not given) registered a TGI of over 100 µM.

Turning to `COc1cc2c3cc1Oc1c(OC)c(OC)cc4c1C(Cc1ccc(O)c(c1)Oc1ccc(cc1)CC3N(C)CC2)CN(C)C4` (stereo not given), the TGI stood at 34.9 µM.

`COc1cc2[nH]c(=O)c3cc(-c4ccccc4)cc4c(Cl)nc(c1OC)c2c43` displayed a TGI of 47.5 µM.

A further assay concerns CAKI-1 renal. Description: growth of human tumour cells (NCI), 48 h.
Regarding `CCc1nc(N)nc(N)c1-c1ccc([N+](=O)[O-])c(NCc2ccccc2)c1`, the TGI stood at 29.3 µM.

Compound `COc1cc2c3cc1Oc1c(OC)c(OC)cc4c1C(Cc1ccc(O)c(c1)Oc1ccc(cc1)CC3N(C)CC2)CN(C)C4` (stereo not given) returned a TGI of 44.3 µM.

In turn, `COc1cc2[nH]c(=O)c3cc(-c4ccccc4)cc4c(Cl)nc(c1OC)c2c43` gave a TGI of 71 µM.

A further assay deals with HS 578T breast. The assay can be described thus: growth of human tumour cells (NCI), 48 h.
Consider `CCc1nc(N)nc(N)c1-c1ccc([N+](=O)[O-])c(NCc2ccccc2)c1`, for which the TGI was found to be 51.4 µM.

`COc1ccc(C2Oc3c(OC)cc(CCCO)cc3C2CO)cc1OC` (stereo not given) registered a TGI of over 100 µM.

For `COc1cc2c3cc1Oc1c(OC)c(OC)cc4c1C(Cc1ccc(O)c(c1)Oc1ccc(cc1)CC3N(C)CC2)CN(C)C4` (stereo not given), the TGI came to 38.9 µM.

In the case of `COc1cc2[nH]c(=O)c3cc(-c4ccccc4)cc4c(Cl)nc(c1OC)c2c43`, the TGI was over 100 µM.

The subject of the next assay is SF-539 CNS. The assay can be described thus: growth of human tumour cells (NCI), 48 h.
For the compound `CCc1nc(N)nc(N)c1-c1ccc([N+](=O)[O-])c(NCc2ccccc2)c1`, the TGI turned out to be 39.3 µM.

`COc1ccc(C2Oc3c(OC)cc(CCCO)cc3C2CO)cc1OC` (stereo not given) had a TGI of over 100 µM.

`COc1cc2c3cc1Oc1c(OC)c(OC)cc4c1C(Cc1ccc(O)c(c1)Oc1ccc(cc1)CC3N(C)CC2)CN(C)C4` (stereo not given) came in with a TGI of 26.9 µM.

The next assay relates to OVCAR-5 ovarian. Description: growth of human tumour cells (NCI), 48 h.
`CCc1nc(N)nc(N)c1-c1ccc([N+](=O)[O-])c(NCc2ccccc2)c1` showed a TGI of over 100 µM.

Consider `COc1ccc(C2Oc3c(OC)cc(CCCO)cc3C2CO)cc1OC` (stereo not given), for which the TGI is over 100 µM.

Compound `COc1cc2c3cc1Oc1c(OC)c(OC)cc4c1C(Cc1ccc(O)c(c1)Oc1ccc(cc1)CC3N(C)CC2)CN(C)C4` (stereo not given) showed a TGI of 44.8 µM.

The compound `COc1cc2[nH]c(=O)c3cc(-c4ccccc4)cc4c(Cl)nc(c1OC)c2c43` displayed a TGI of over 100 µM.

In a further assay the test system is MDA-MB-231 breast. The assay can be described thus: growth of human tumour cells (NCI), 48 h.
As to `CCc1nc(N)nc(N)c1-c1ccc([N+](=O)[O-])c(NCc2ccccc2)c1`, the TGI is 38.1 µM.

For `COc1ccc(C2Oc3c(OC)cc(CCCO)cc3C2CO)cc1OC` (stereo not given), the TGI was over 100 µM.

`COc1cc2c3cc1Oc1c(OC)c(OC)cc4c1C(Cc1ccc(O)c(c1)Oc1ccc(cc1)CC3N(C)CC2)CN(C)C4` (stereo not given) returned a TGI of 28.1 µM.

In turn, `COc1cc2[nH]c(=O)c3cc(-c4ccccc4)cc4c(Cl)nc(c1OC)c2c43` returned a TGI of over 100 µM.
